Results on seven compounds are retold here after DBAASP.

In brackets after ≈: the same amount, converted by molar mass.

A word on the MIC: it is the least concentration at which growth counts as inhibited. A higher MIC goes with a need for much substance.

Test systems include Shigella flexneri; Streptococcus agalactiae; Escherichia coli DC2; Escherichia coli UB1005; Escherichia coli W160-37; Staphylococcus aureus.
Assay in all cases: ≥ marks a high value that may be exact or a test limit, other limits are often not marked, values filed in µg/mL are converted to µM
Test [1] relates to Bacillus subtilis ATCC 6633.
The subject of test [2] is Escherichia coli ATCC 25922.
Test [3] deals with Listeria monocytogenes ATCC 7644.
For test [4], the system named is Salmonella enterica subsp. enterica serovar Typhi ATCC 6399.
Test [5] has as its system Staphylococcus aureus ATCC 25923.
In test [6] the test system is Micrococcus luteus ATCC 4698.
Test [7] relates to Candida albicans ATCC 64550.
Test [8] deals with Candida albicans ATCC 90028.
The test system of test [9] is Pseudomonas aeruginosa ATCC 9027.
The test system of test [10] is Staphylococcus aureus ATCC 29737.
In test [11] the test system is Staphylococcus aureus USA 100.
In test [12] the test system is Staphylococcus aureus USA 300.
The test system of test [13] is Staphylococcus epidermidis ATCC 12228.
Test [14] concerns Corynebacterium xerosis C875.
Test [15] deals with Pseudomonas aeruginosa ATCC 27853.
Test [16] deals with Staphylococcus epidermidis C621.

Regarding `CC[C@H](C)[C@H](NC(=O)[C@H](CC(C)C)NC(=O)[C@H](CCCCN)NC(=O)[C@H](CC(C)C)NC(=O)[C@H](C)NC(=O)CNC(=O)[C@H](CCCCN)NC(=O)[C@H](C)NC(=O)[C@H](CC(C)C)NC(=O)[C@H](C)NC(=O)CNC(=O)[C@H](Cc1c[nH]c2ccccc12)NC(=O)[C@@H](N)Cc1ccccc1)C(=O)NCC(=O)N[C@H](C(=O)NCC(=O)N[C@@H](CO)C(=O)N[C@@H](CC(C)C)C(=O)N[C@@H](Cc1ccccc1)C(=O)N[C@@H](CO)C(=O)N[C@@H](CO)C(=O)N[C@@H](Cc1ccccc1)C(=O)N[C@@H](CO)C(=O)N[C@@H](CCCCN)C(=O)N[C@@H](CCCCN)C(=O)N[C@@H](CC(=O)O)C(=O)O)C(C)C` [FWGALAKGALKLIGVGSLFSSFSKKD], the minimum inhibitory concentration (MIC) in [1] is not below 37.5 µM; in test [2] it was 37.5 µM (≈ 102 µg/mL); in [3] it was not below 37.5 µM; in test [4] it was not below 37.5 µM; with Shigella flexneri, not below 37.5 µM; in [5] it was 75 µM (≈ 205 µg/mL). This compound also showed an MIC with Streptococcus agalactiae not below 37.5 µM.
Regarding `CC[C@H](C)[C@H](N)C(=O)N[C@@H](C)C(=O)N[C@@H](CCC(N)=O)C(=O)N[C@@H](CCC(N)=O)C(=O)N[C@@H](C)C(=O)N[C@@H](C)C(=O)N[C@@H](CC(N)=O)C(=O)N[C@H](C(=O)N[C@@H](C)C(=O)N[C@@H](C)C(=O)N[C@H](C(=O)N[C@@H](C)C(=O)N[C@@H](CCCN=C(N)N)C(=O)NCC(=O)O)[C@@H](C)O)C(C)C` [IAQQAANVAATARG], the minimal inhibitory concentration (MIC) in test [6] was 8.84 µM (≈ 11.9 µg/mL). This counts as single-digit micromolar.
As for `CC[C@H](C)[C@H](N)C(=O)N[C@@H](CCCCN)C(=O)N[C@H](C(=O)N[C@@H](CCCCN)C(=O)N[C@H](C(=O)N[C@@H](CCCCN)C(=O)N[C@H](C(=O)N[C@@H](CCCCN)C(N)=O)[C@@H](C)CC)[C@@H](C)CC)[C@@H](C)CC` [IKIKIKIK], the minimum inhibitory concentration (MIC) in [7] was 3.13 µM (≈ 3.07 µg/mL); in test [8], 1.56 µM (≈ 1.53 µg/mL); in test [2] it was 31.8 µM (≈ 31.3 µg/mL); in test [9] it was 6.25 µM (≈ 6.14 µg/mL); in test [10] it was not below 127 µM; in test [11], 25 µM (≈ 24.6 µg/mL). Also, the MIC was found to be 25 µM (≈ 24.6 µg/mL) in [12] and 2.03 µM (≈ 2 µg/mL) in test [13].
For `C[C@H](NC(=O)[C@H](C)NC(=O)[C@H](C)NC(=O)[C@H](Cc1c[nH]c2ccccc12)NC(=O)[C@H](Cc1ccccc1)NC(=O)[C@H](C)NC(=O)[C@H](C)NC(=O)[C@H](C)NC(=O)[C@H](C)NC(=O)[C@H](CCCCN)NC(=O)[C@H](CCCCN)NC(=O)[C@H](CCCCN)NC(=O)[C@H](CCCCN)NC(=O)[C@H](CCCCN)NC(=O)[C@@H](N)CCCCN)C(=O)N[C@@H](C)C(=O)N[C@@H](Cc1ccccc1)C(N)=O` [KKKKKKAAAAFWAAAAF], the MIC came out at 0.5 µM (≈ 0.918 µg/mL) in test [14]; 16 µM (≈ 29.4 µg/mL) in test [2]; 0.5 µM (≈ 0.918 µg/mL) against Escherichia coli DC2; 2 µM (≈ 3.67 µg/mL) against Escherichia coli UB1005; 16 µM (≈ 29.4 µg/mL) in test [15]; 8 µM (≈ 14.7 µg/mL) in [16].
Turning to `CC(C)C[C@H](NC(=O)[C@H](CCCCN)NC(=O)[C@H](CCCCN)NC(=O)[C@H](Cc1ccccc1)NC(=O)[C@H](Cc1ccccc1)NC(=O)[C@H](CCCCN)NC(=O)[C@H](CCCCN)NC(=O)[C@H](C)NC(=O)[C@H](CCCN=C(N)N)NC(=O)[C@@H](N)CCCCN)C(=O)N[C@@H](CCCCN)C(N)=O` [KRAKKFFKKLK], the MIC in test [7] is not below 100 µM.
`NCCCC[C@H](NC(=O)[C@H](CO)NC(=O)[C@H](Cc1cnc[nH]1)NC(=O)[C@H](CCCN=C(N)N)NC(=O)[C@H](Cc1cnc[nH]1)NC(=O)[C@H](CO)NC(=O)[C@H](CCC(N)=O)NC(=O)[C@H](Cc1ccc(O)cc1)NC(=O)[C@@H](N)CC(N)=O)C(=O)N[C@@H](CO)C(=O)O` [NYQSHRHSKS] showed an MIC in test [6] not below 75 µM.
Take `CC[C@H](C)[C@H](NC(=O)[C@H](Cc1c[nH]c2ccccc12)NC(=O)[C@H](CCCCN)NC(=O)[C@H](CC(C)C)NC(=O)[C@H](Cc1ccccc1)NC(=O)[C@@H](NC(=O)[C@H](CCCCN)NC(=O)[C@H](CC(C)C)NC(=O)[C@H](CC(C)C)NC(=O)[C@H](CCCCN)NC(=O)[C@@H]1CCCN1)[C@@H](C)O)C(=O)NCC(=O)O` [PKLLKTFLKWIG]: the MIC with Escherichia coli W160-37 was found to be 25 µM (≈ 36.1 µg/mL); against Staphylococcus aureus, 14 µM (≈ 20.2 µg/mL).
